Experimental data: US7112585B2, “Pyrimidine derivatives as corticotropin releasing factor inhibitors” (Bristol-Myers Squibb Company, priority 2003, dated 2006)

Key:
[1] = molecular target: T1, cloned human CRF-R1 receptors (Homo sapiens, UniProt P34998); experiment: CRF-R1 Receptor Binding Assay (inhibition of 125I-ovine-CRF binding to cell membranes); set-up: key to activity: a: Ki≦100 nM; b: 100 nM<Ki≦500 nM; c: 500 nM<Ki≦5,000 nM; activity reported in percent inhibition at 10 μM; conditions: CRF assays; class d = activity only as percent inhibition at 10 μM (value not given)
T1 construct: the coding region was amplifies by PCR from start to stop codons; expressed in transfected cells; host or cells: 293EBNA (HEK 293 EBNA-1) cells, episomal vector phchCRFR, hygromycin-selected pool; membranes
T1 sequence (P34998 24-415): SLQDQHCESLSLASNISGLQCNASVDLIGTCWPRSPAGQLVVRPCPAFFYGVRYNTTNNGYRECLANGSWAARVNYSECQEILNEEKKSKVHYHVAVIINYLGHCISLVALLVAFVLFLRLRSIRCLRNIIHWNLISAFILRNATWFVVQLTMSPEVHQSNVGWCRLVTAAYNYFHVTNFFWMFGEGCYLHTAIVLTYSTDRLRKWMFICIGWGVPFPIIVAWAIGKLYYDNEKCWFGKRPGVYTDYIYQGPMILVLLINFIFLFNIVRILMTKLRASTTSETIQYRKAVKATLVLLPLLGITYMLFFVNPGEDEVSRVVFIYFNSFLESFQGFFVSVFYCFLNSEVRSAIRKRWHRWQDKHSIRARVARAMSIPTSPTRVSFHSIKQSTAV
Text: CRF-R1 Receptor Binding Assay for the Evaluation of Biological Activity
The following is a description of the isolation of cell membranes containing cloned human CRF-R1 receptors for use in a standard binding assay as well as a description of the assay itself.
Messenger RNA was isolated from human hippocampus. The mRNA was isolated from human hippocampus. The mRNA was reverse transcribed using oligo (dt) 12–18 and the coding region was amplifies by PCR from start to stop codons. The resulting PCR fragment was cloned into the EcORV site of pGEMV, from whence the insert was reclaimed using XhoI+XbaI and cloned into the XhoI+XbaI sites of vector pm3as (which contains a CMV promoter, the SV′t′ splice and early poly A signals, an Eptein-Barr viral origin of replication, and a hygromycin selectable marker). The resulting expression vector, called phchCRFR was transfected in 293EBNA cells and cells retaining the episome were selected in the presence of […] hygromycin. Cells surviving 4 weeks of selection in hygromycin were pooled, adapted to growth in suspension and used to generate membranes for the binding assay described below. Individual aliquots containing approximately 1×10^8 of the suspended cells were then centrifuged to form a pellet and frozen. For the binding assay a frozen pellet described above containing 293EBNA cells transfected with hCRFR1 receptors is homogenized in 10 mL of ice cold tissue buffer (50 mM HEPES buffer pH 7.0, containing 10 MM MgCl2, 2 mM EGTA, 1 μg/mL apotinin, 1 μg/mL leupeptin and 1 μg/mL pepstatin). The homoginate is centrifuged at 40,000×g for 12 min and the resulting pellet rehomogenized in 10 mL of tissue buffer. After another centrifugation at 40,000×g for 12 min, the pellet is resuspended to a protein concentration of 360 μg/mL to be used in the assay.
Binding assays are performed in 96 well plates; each well having a 300 μL capacity. To each well is added 50 μL of test drug dilutions (final concentration of drugs range from 10^−10–10^−5 M), 100 μL of ^125I-ovine-CRF (^125I-o-CRF) (final concentration 150 pM) and 150 μL of the cell homoginate described above. Plates are then allowed to incubate at room temperature for 2 hours before filtering the incubate over GF/F filters (presoaked with 0.3% polyethyleneimine) using an appropriate cell harvester. Filters are rinsed 2 times with ice cold assay buffer before removing individual filters and assessing them for radioactivity on a gamma counter.
Curves of the inhibition of ^125I-o-CRF binding to cell membranes at various dilutions of test drug are analyzed by the iterative curve fitting program LIGAND [P. J. Munson and D. Rodbard, Anal. Biochem., 107:220 (1980), which provides Ki values for inhibition which are then used to assess biological activity. […]
Messenger RNA was isolated from human hippocampus. The mRNA was isolated from human hippocampus. The mRNA was reverse transcribed using oligo (dt) 12–18 and the coding region was amplifies by PCR from start to stop codons. The resulting PCR fragment was cloned into the EcORV site of pGEMV, from whence the insert was reclaimed using XhoI+XbaI and cloned into the XhoI+XbaI sites of vector pm3as (which contains a CMV promoter, the SV′t′ splice and early poly A signals, an Eptein-Barr viral origin of replication, and a hygromycin selectable marker). The resulting expression vector, called phchCRFR was transfected in 293EBNA cells and cells retaining the episome were selected in the presence of […] hygromycin. Cells surviving 4 weeks of selection in hygromycin were pooled, adapted to growth in suspension and used to generate membranes for the binding assay described below. […]
A frozen pellet described above containing 293EBNA cells transfected with hCRFR1 receptors or the rat frontal cortex tissue dissected from frozen rat brains was prepared as the source of membranes expressing CRF1 receptors used in binding assays. […]

SMILES	melting point [°C]	Ki [1] [nM]	activity [1]
Cc1cc(C)c(Nc2nc(C)ncc2S(=O)(=O)c2ccc(OCc3ccccc3)cc2)c(C)c1 [Example 4, [5-(4-Benzyloxybenzenesulfonyl)-2-methylpyrimidin-4-yl]-(2,4,6-trimethylphenyl)-amine]	166 to 168	≤ 100	
Cc1cc(C)c(Nc2nc(C)ncc2S(=O)(=O)c2ccc(O)cc2)c(C)c1 [Example 2, 4-[2-Methyl-4-(2,4,6-trimethylphenylamino)-pyrimidine-5-sulfonyl]-phenol]	246 to 248	500 to 5000	
COc1ccc(S(=O)(=O)c2cnc(C)nc2Nc2c(C)cc(C)cc2C)cc1 [Example 1, [5-(4-Methoxybenzenesulfonyl)-2-methylpyrimidin-4-yl]-(2,4,6-trimethylphenyl)-amine]	153 to 155	100 to 500	
Cc1cc(C)c(Nc2nc(C)ncc2S(=O)(=O)c2ccc(F)cc2)c(C)c1 [Example 15, [5-(4-Fluorobenzenesulfonyl)-2-methylpyrimidin-4-yl]-(2,4,6-trimethylphenyl)-amine]	191 to 193	100 to 500	
COc1ccc(S(=O)(=O)c2cnc(C)nc2Cc2c(C)cc(C)cc2C)cc1 [Example 13, 5-(4-Methoxyoxybenzenesulfonyl)-2-methyl-4-(2,4,6-trimethylbenzyl)-pyrimidine]	150 to 152	100 to 500	
Cc1cc(C)c(Nc2nc(C)ncc2S(=O)(=O)c2ccc(C3=NCCN3)cc2)c(C)c1 [Example 29, {5-[4-(4,5-Dihydro-1H-imidazol-2-yl)-benzenesulfonyl]-2-methyl-pyrimidin-4-yl}-(2,4,6-trimethylphenyl)-amine]	240 to 242		d
CC(=O)Oc1ccc(S(=O)(=O)c2cnc(C)nc2Nc2c(C)cc(C)cc2C)cc1 [Example 3, Acetic acid 4-[2-methyl-4-(2,4,6-trimethylphenylamino)-pyrimidine-5-sulfonyl]-phenyl ester]	142 to 144	500 to 5000	
Cc1cc(C)c(Nc2nc(C)ncc2S(=O)(=O)c2ccc(-c3ncccn3)cc2)c(C)c1 [Example 25, [2-Methyl-5-(4-pyrimidin-2-yl-benzenesulfonyl)-pyrimidin-4-yl]-(2,4,6-trimethylphenyl)-amine]	215 to 217	≤ 100	
